From patent US20230020401A1, “METABOLIC REPROGRAMMING OF IMMUNE CELLS TO ENHANCE THE EFFICACY OF PROPHYLACTIC AND T[…]” (priority 2019, published 2023)

What was measured:
IgG1 GC B cells = experiment: SRBC immunization of mice with Mdivi-1 treatment (GC and memory B cells); format: in vivo
[1] = tested on: immune cells (GC B cells, memory B cells, non-B cells); experiment: Mitochondrial mass of immune cells in vivo after SRBC immunization with SBP-AS08; parameters: species or system mice
Method: Seven mice each in two group were immunized with SRBC on Day 0 and Day 4. One group on Day 3 and Day 7 were given SBP-A508 at 2.5 mg/kg. GC B cells were MACS and stained with Tomm20 (red) to stain mitochondria and DAPI to stain nucleus on Day 15. Cells were imaged using confocal microscope.
In another experiment, mice each in two group were immunized with SRBC on Day 0 and Day 5. One group of mice was also injected with SBP-A508 on Day 7 and Day 10. […] Day 15 post immunization, mice were sacrificed and spleens were harvested. Cells were incubated in Mitotracker red dye 200 nM per ml of RPMI for 15 mins at culture conditions. Cells were further stained with surface antibodies B220, CD38, Fas to determine B cells, Germinal Center and non-B cells populations.

IgG1 memory cells [2] = experiment: Effect of Mdivi-1 on IgG1 memory cells formation 6 months post immunization; format: in vivo
IgG1 memory cells [3] = experiment: SRBC immunization Day 0 with SBP-AS08 on day 2, IgG1 memory cells; format: in vivo, mice; conditions: SRBC with SBP-AS08 vs SRBC alone
Method: Seven mice were immunized with SRBC Day 0, and further injected with SBP-AS08 on day 2. Then, serum from immunized mice was incubated with SRBC and stained by anti-mouse IgG1 antibody to detect the SRBC specific IgG1 antibody. FIG. 12A is the graph showing absolute number of IgG1 memory cells in SRBC alone and SRBC with SBP-A508, indicating the increase of IgG1 memory cells in the mice injected with SBP-AS08.

NP specific B cells = experiment: NP-CGG immunization with Mdivi-1 (day 2, 5, 8) and rechallenge on day 61; format: in vivo, mice
Method: FIG. 12C is a schematic of an experimental design of multiple injections of Mdivi-1 (SBP-A508) for studying NP-CGG immunization along with or without SBP-A508 treatment. As shown, mice were injected with NP-CGG on day 0, and further injected with SBP-A508 on day 2, Day 5, and Day 8 at a dose of 2.5 mg/kg each. Then, a boost immunization (rechallenge) was given on day 61. Mice were bleed on day 82 for further analysis. FIG. 12D is a bar graph in log scale showing the NP-2 specific antibody production measured by ELISA in control and SBP-AS08 treated group upon rechallenge with NP-CGG in PBS on Day 61. Mice were bleed on Days 0, 60, 68, 75 and 82.
FIG. 13A depicts an experimental design for studying NP-CGG immunization along with or without Mdivi-1 treatment. Briefly, Mdivi-1 treatments were performed at least three times after immunization (day 2, day 5, and day 8), and the blood samples from the subject were analyzed at 2 months after the immunization. […] Mice were bleed on days 0, 60, 68, 75 and 82.
Mice were immunized with NP-CGG and treated with Mdivi-1 at least three times after immunization (day 2, day 5, and day 8). Then, a boost immunization (rechallenge) was given on day 61. Mice were bleed on day 82 for further analysis. […] Mice were bleed on days 0, 60, 68, 75 and 82 after immunization with NP-CGG. […] As shown in FIGS. 17A-B, Mdivi-1 treated mice replenished their memory B cell pool.

[4] = tested on: T follicular helper (TFh) cells; experiment: T follicular helper (TFh) cells in Mdivi-1 treated mice; format: in vivo
Text: […] Dot plots shown in FIG. 18B show the frequencies of TFh cells. […] Similarly, FIGS. 23A-B show flow plots (FIG. 23A) and graph (FIG. 23B) displaying enrichment of T follicular helper cells in mice treated with Mdivi-1.

IgG1 memory B cells = experiment: SRBC immunization, Mdivi-1 once on Day 3, analysis on day 11 (IgG1 memory and memory precursor cells, antibodies); format: in vivo, mice
Method: Mice were immunized with Sheep red blood cells (SRBC) to mount an immune response. One group was treated with Mdivi-1 once at the dose of 2.5 mg/kg on Day 3. Blood samples of all groups were analyzed on day 11 after initial immunization.
FIGS. 21A-B show increased IgG1 memory cell population upon Mdivi-1 treatment. […] show flow plots showing IgG1 population and gating memory B cells in immunized control and Mdivi-1 treated mice.
FIG. 22A show two flow plots showing population of SRBC-specific IgG1 memory precursors in control and Mdivi-1 treated group (right upper boxes). FIG. 22B is the graph showing frequencies of IgG1 memory precursors.
Sera was incubated with SRBC to bind all the SRBC specific antibody, followed by staining SRBCs with anti-IgG1 to determine the SRBC specific IgG1 in control and Mdivi-1 treated group of mice.

IgM and IgG1 cells = experiment: Confocal imaging of mitochondria organization upon BCR stimulation; format: cell-based; conditions: BCR+Mdivi-1
H1N1 = experiment: Flu vaccine with Mdivi-1, lethal H1N1 challenge; format: in vivo, mice
Method: 4 groups of ten mice each (6-8 weeks) were vaccinated intra-nasally with flu vaccine (vaccine group and vaccine+Mdivi-1 (SBP AS-08) group) or saline (No Vaccine group). In day 3, vaccine+Mdivi-1 (SBP AS-08) group and Mdivi-1 only group were administered with 2.5 mg/kg dose of Mdivi-1 (SBP AS-08), while all other groups were administered with saline. In day 60, all groups were administered with a lethal dose of H1N1. FIG. 28A is an individual dot graph showing the weight of mice in each group post lethal H1N1 viral infection. For each time point, dot or a group of dots from left to right represent the sample fo no vaccine, SBP-AS08 only, vaccine only, and vaccine and SBP-AS08, respectively. […] Mice were sacrificed if the weight reached 70% of their original weight or appeared very sick. N=10 per group, *p=0.04, ** p=0.001, ***p=0.0001, ****p<0.0001.
Mice from each group were also sacrificed on Day 7 post lethal influenza infection.

SRBC specific antibody = experiment: SRBC immunization in older age mice with Mdivi-1; format: in vivo; conditions: 14-24 months old mice; 2.5 mg/kg day 3; day 11
Method: 2 groups of eight mice each (14-24 months old age) were immunized intraperitoneally with sheep red blood cells (SRBC). In day 3, one group (SRBC group) was administered with saline, and another group (SRBC+Mdivi-1 (SBP-AS08)) was administered with 2.5 mg/kg dose of Mdivi-1 (SBP AS-08). FIG. 30B and FIG. 30C show scatter plots of SRBC specific anti-IgM antibody or SRBC specific anti-IgG1 antibody of two groups in day 11 after administration of SRBC, respectively. Each dot represents each individual mice in each group.

SARS-CoV2 specific cells = experiment: SARS-CoV2 S1 subunit vaccine with Mdivi-1 (SBP-AS08) in mice; format: in vivo
pseudo SARS-CoV2 virus = format: cell-based, human
[5] = tested on: mouse pancreatic cancer cells; experiment: Neo-antigen vaccine with SBP-AS08 in mouse pancreatic cancer model; format: in vivo, mice; conditions: Kaplan Meier
Method: The effect of Mdivi-1 (SBP-AS08) in boosting immunity can be extrapolated to other diseases related to specific immune response (e.g., cancer, etc.). FIG. 36A is a schematic of an experimental layout to test the effect of Mdivi-1 (SBP-AS08) in mouse cancer model. In this experiment, mouse pancreatic cancer cell line lysate was used as the vaccine. 200,000 mouse pancreatic cancer cells were injected in 10 (C57/B6) mice per group via tail vein. Effectiveness of the vaccine was tested by analyzing the metastasis of the cancer cells from the pancreas to lungs (FIG. 36B). Lungs tissues were collected from group of vaccine and vaccine with SBP-AS08 on Day 22 post injections. Two more groups with no treatment and only SBP-AS08 treatment were also included in the analysis.
FIG. 37A and FIG. 37B show Kaplan Meier survival curve of mice that are unvaccinated, treated with SBP-AS08 only, treated with vaccine, or treated with vaccine and SBP-AS08.

[6] = tested on: plasma cells (CD138+ cells); experiment: Plasma cell (PC) differentiation in vitro; format: cell-based
Method: Cells were treated either with Etomoxir to prevent fatty acid oxidation or with 2-deoxy-D-glucose (2DG) to […] to see the effect of fatty acid oxidation in plasma cell differentiation.

[7] = Mdivi-1 two days post immunization
[8] = 2.5 mg/kg Day 3 and Day 7, mitotracker red MFI, Day 15
[9] = injected Day 7 and Day 10, spleen Day 15, Mitotracker red
[10] = single injection 2.5mg/kg Day 3, Day 15

## COc1cc(-n2c(=S)[nH]c3ccccc3c2=O)c(Cl)cc1Cl [Mdivi-1, 3-(2,4-dichloro-5-methoxyphenyl)-2,3-dihydro-2-thioxo-4(1H)-quinazolinone]
IgG1 GC B cells; Mdivi-1 twice, each 3 days after SRBC, vs control
  frequencies of GC B cells: increased
IgG1 GC B cells; [7]
  IgG1 memory B cells: significant increase
  longevity of IgG1 memory B cells: significant increase
  mitochondrial mass of IgG1 memory B cells: significant increase
IgG1 GC B cells; Mitotracker green MFI
  mitochondrial mass of IgG1 GC B cells: enhances
IgG1 GC B cells; SRBC immunization
  IgG1 B cell loss through mitochondrial fragmentation and apoptosis: prevents IgG1 B cell loss
IgG1 GC B cells; active caspase-3, flow cytometry
  survival of IgG1 GC B cells: enhances
[1]; [8]
  mitochondrial mass of germinal center B cells: enhances
  mitochondrial mass of memory B cells: enhances
[1]; [9]
  mitochondrial mass of B cells: significantly increased
  mitochondrial mass of non-B cells: significantly increased
IgG1 memory cells [2]
  immune memory formation (IgG1 expressing memory B cells): facilitates immune memory formation
IgG1 memory cells [3]
  absolute number of IgG1 memory cells: increase
NP specific B cells; 2 months after immunization, vs control
  frequency of NP specific B cells: substantial increase
NP specific B cells; after rechallenge
  memory B cell pool: replenished
NP specific B cells; after rechallenge, vs control
  number of NP specific IgG1 memory cells: significantly increased
  number of NP specific immune cells: significantly increased
NP specific B cells; rechallenge with NP-CGG in PBS on Day 61
  antigen specific antibody generation after antigen boost: substantially increased
NP specific B cells; upon recall, control group 33%
  mice showing secondary response upon recall: 100%
NP specific B cells; vs control
  NP specific antibody production measured by ELISA: increased
[4]; FIG. 18B, vs control
  frequency of TFh cells: substantially increased
[4]; FIGS. 23A-B
  T follicular helper cells: enrichment
[4]; vs nontreated control group
  PD-1 molecule expression on T follicular helper cells (median fluorescent intensity): higher
IgG1 memory B cells; 2.5 mg/kg once on Day 3, day 11
  IgG1+CD38+ cell population (IgG1 memory B cells): substantially increased
IgG1 memory B cells; FIG. 19
  frequencies of SRBC-specific IgG1 memory precursors: significantly increased
IgG1 memory B cells; FIGS. 22A-B
  IgG1+CD38+ cell population (memory precursors cells): substantially increased
IgG1 memory B cells; FIGS. 24A-B
  efficacy of immunization (total IgG and SRBC specific IgG antibodies): increases the efficacy of immunization
IgM and IgG1 cells
  mitochondrial fission in BCR treated cells: prevents the mitochondrial fission
H1N1; 2.5 mg/kg day 3 after flu vaccine, lethal H1N1 day 60
  protection against fatal influenza infection (event free survival): boosts the protection
H1N1; Day 7 post lethal influenza infection, H&E
  disease progression post H1N1 (lung histology): reduces the disease progression
SRBC specific antibody
  SRBC specific anti-IgG1 antibody: substantially increased
SARS-CoV2 specific cells; 2.5 mg/kg Day 2 and Day 5, boost day 30, Day 37 and Day 44
  efficacy of the vaccine after rechallenge (S1 specific antibody titers in serum): enhances the efficacy
SARS-CoV2 specific cells; injections Day 2 and Day 5, Day 15, vs vaccine alone
  number of marker-specific B cells: further increased
SARS-CoV2 specific cells; [10]
  number of SARS-CoV2-specific cells: increased
  number of SARS-CoV2-specific memory B cells: increased
  number of anti-SARS-CoV2 antibody producing cells: increased
  number of splenocytes: increased
Pseudo SARS-CoV2 virus
  % of neutralizing antibody titers (SARs-Cov2 pseudovirus neutralization): higher
[5]
  survival of tumor bearing mice: increases the survival

## CCOC(=O)[C@@]1(CCCCCCOc2ccc(Cl)cc2)CO1 [Etomoxir]
[6]
  number of CD138+ cells: substantially increased

## O=CC[C@@H](O)[C@H](O)[C@H](O)CO [2DG, 2-deoxy-D-glucose]
[6]
  number of CD138+ cells: substantially decreased
